Structures can show the parent of a compound that is named as a salt. No end group written: not given here.
Tests used:
[1] = tested on: HEK293T cells; assay: cAMP accumulation, forskolin-stimulated, in empty-vector (pcDNA 3.1) HEK293T cells; format: cell-based, human; conditions: HEK293T transfected with empty vector; 1 mM IBMX, 1 μM forskolin; ligand 5 min; three independent experiments
Procedure: For time-course assays, transfected cells were seeded in 24 wells dishes and after 24 h, 100% confluent cells were starved for 2 h and incubated 5 min in basal culture medium supplemented with 1 mM IBMX at 37°C, followed by exposure to 1 μM forskolin for 5, 10, 15, 30, or 60 min. In concentration response assays, transfected cells were seeded in 24 wells dishes after 24 h, 100% confluent cells were starved for 2 h and incubated 5 min in basal culture medium supplemented with 1 mM IBMX at 37°C, followed by 10 min exposure to 1 μM forskolin to increase basal cAMP levels, and incubated for 5 min with indicated concentrations of Ang-(1–7) or AVE 0991. For all cAMP determinations, the reactions were stopped by ethanol addition followed by centrifugation at 2,000 g for 10 min. The ethanol phase was then dried, and the residue resuspended in 50 mM Tris-HCl pH 7.4, 0.1% BSA. cAMP content was determined by competition of [^3H]cAMP for PKA, as previously described ([Davio et al., 1995]).

[2] = biological target: T1, human MasR (Homo sapiens, UniProt P04201); assay: cAMP accumulation, forskolin-stimulated, in MasR-transfected HEK293T cells (competition of [^3H]cAMP for PKA); format: cell-based; conditions: 1 mM IBMX
T1 construct: host or cells: HEK293T, transient transfection
T1 sequence (P04201 1-325): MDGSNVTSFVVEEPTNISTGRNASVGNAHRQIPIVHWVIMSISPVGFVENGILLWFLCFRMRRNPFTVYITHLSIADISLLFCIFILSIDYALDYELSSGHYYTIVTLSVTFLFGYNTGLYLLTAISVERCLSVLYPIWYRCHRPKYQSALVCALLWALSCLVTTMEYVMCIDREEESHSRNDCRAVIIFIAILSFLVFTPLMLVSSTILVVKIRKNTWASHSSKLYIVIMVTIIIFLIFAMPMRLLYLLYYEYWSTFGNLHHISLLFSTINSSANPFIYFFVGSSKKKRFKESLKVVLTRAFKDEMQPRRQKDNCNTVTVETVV
Procedure: A pcDNA3.1(+)-myc-MasR expression construct corresponding to the human MasR (accession number: NM_002377.2) fused to the c-myc tag peptide at N-terminal was acquired from Life Technologies (Grand Island, NY, United States). An empty vector [pcDNA 3.1 (+)] was used both as negative control and to deliver an equal amount of plasmid per transfection in all the experiments.
Cultures were maintained at 37°C in humidified atmosphere containing 5% CO2. For transient transfections, cells were grown to 80–90% confluency and the cDNA constructs were transfected using the K2 Transfection System (Biontex, Munich, Germany). The transfection protocol was optimized as recommended by the suppliers. Assays were performed 48 h after transfection. […] The transfection protocol was optimized as recommended by the suppliers. Assays were performed 48 h after transfection.
For determination of cAMP basal levels, transfected cells were seeded in 12 wells dishes, 24 h later 100% confluent cells were starved for 2 h and pretreated, when indicated, for 1 h with pertussis toxin (100 ng/ml) and incubated later for 30 min in basal culture medium supplemented with 1 mM IBMX at 37°C. […] The ethanol phase was then dried, and the residue resuspended in 50 mM Tris-HCl pH 7.4, 0.1% BSA. cAMP content was determined by competition of [^3H]cAMP for PKA, as previously described ([Davio et al., 1995]).

[3] = tested on: heart; conditions: orally active; ref Ferreira et al., 2007; cited from earlier work
Description: The physiological relevance of the constitutive activity of the MasR remains to be determined. Constitutive activity of GPCRs for various neurotransmitters contributes to basal neuronal activity ([Seifert and Wenzel-Seifert, 2002]). The mRNA encoding the MasR has been detected in various regions of the rat and mouse brain ([Young et al., 1988]; [Bunnemann et al., 1990]; [Martin et al., 1992]; [Metzger et al., 1995]). In addition, it has been reported that MasR-KO mice have alterations of the CNS ([Walther et al., 1998], [2000a],[b]). Thus, the constitutive activity of the MasR could play a reg ...

[4] = tested on: MasR; parameters: method as in Gaidarov et al. (2018); conditions: 30 min forskolin pre-incubation, 60 min with ligand; ref Gaidarov et al. (2018); cited from earlier work
[5] = tested on: A549 cells; assay: Intracellular Ca^2+ (Fura-2AM) in A549 cells with endogenous MasR; format: cell-based, human; conditions: histamine 10^-4 M, 340/380 ratio, 180 s, representative of three independent experiments
Procedure: Changes in intracellular Ca^2+ concentration were measured using fura-2 acetoxymethyl ester (Fura-2AM) fluorescent indicator. A549 cells were seeded in 96 wells dishes for 24 h (90–100% confluence). […] Fluorescence was measured in a FlexStation 3 microplate reader (Molecular Devices Inc., San Jose, CA, United States). […] After 30 s of initial recording to determine basal levels, 100 nM Ang (1–7) or 100 μM histamine was added in 100 μl final volumes, and the time course of intracellular Ca^2+ mobilization was recorded for 180 s. […] Autofluorescence was quantified by measuring the fluorescence produced by an equivalent suspension of not-loaded cells. Results were expressed as the ratio of fluorescence’s 340/380 over basal. Basal levels were determined as the media of the recorded measurements in the first 30 s for each well.

[6] = tested on: MasR (A549 cells); assay: Intracellular Ca^2+ (Fura-2AM) in A549 cells transfected with pcDNA 3.1/myc-MasR; format: cell-based, human; conditions: histamine 10^-4 M, same conditions (Figure 3E,F: empty vector or MasR)
Procedure: An empty vector [pcDNA 3.1 (+)] was used both as negative control and to deliver an equal amount of plasmid per transfection in all the experiments.
Changes in intracellular Ca^2+ concentration were measured using fura-2 acetoxymethyl ester (Fura-2AM) fluorescent indicator. […] Fluorescence was measured in a FlexStation 3 microplate reader (Molecular Devices Inc., San Jose, CA, United States). […] After 30 s of initial recording to determine basal levels, 100 nM Ang (1–7) or 100 μM histamine was added in 100 μl final volumes, and the time course of intracellular Ca^2+ mobilization was recorded for 180 s. […] Autofluorescence was quantified by measuring the fluorescence produced by an equivalent suspension of not-loaded cells. Results were expressed as the ratio of fluorescence’s 340/380 over basal. […]

[7] = tested on: rat proximal straight tubule; conditions: against 10^-12 and 10^-8 M Ang-(1–7); ref Garcia and Garvin (1994); cited from earlier work
Description: (§1) The analysis of the interaction between Ang-(1–7) and the AT1R originated discrepancies. […] In addition, [Teixeira et al. (2017)] by performing competition binding assays using ...

[8] = tested on: AT1R mRNA; assay: AT1R mRNA by qPCR after siRNA transfection of HEK293T cells; format: cell-based, human; conditions: siRNA 100 nM, 48 h after transfection, β-Actin, three independent experiments
Procedure: HEK293T (human embryonic kidney) and A549 (human lung carcinoma) cells were cultured in Dulbecco’s modified Eagle’s medium (DMEM) supplemented with 10% fetal calf serum and 50 μg/ml gentamicin. Cultures were maintained at 37°C in humidified atmosphere containing 5% CO2. For transient transfections, cells were grown to 80–90% confluency and the cDNA constructs were transfected using the K2 Transfection System (Biontex, Munich, Germany). The transfection protocol was optimized as recommended by the suppliers. Assays were performed 48 h after transfection. […]
Total RNA was isolated from wild type or transfected HEK293T cells using Quick-Zol reagent (Kalium Technologies, Bernal, Argentina) following the manufacturer’s instructions. […] Quantitative real-time PCR (qPCR) was performed in triplicate on the Rotor Gene Q cycler (Qiagen, Hilden, Germany) using the resulting cDNA, the HOT FIREPol EvaGreen qPCR Mix Plus (Solis BioDyne, Tartu, Estonia) for product detection, and the following primers: human MasR (NM_002377.2) forward, 5′-[…] -3′ and reverse 5′-[…]-3′; human AT1R (M93394.1) forward, 5′-[…]-3′ and reverse, 5′-[…]-3′; human AT2R (NM_000686.4) forward, 5′-[…]-3′ and reverse 5′-[…]-3′; and human β-Actin forward, 5′-[…]-3′ and reverse 5′-[…]-3′. […]

[9] = tested on: AT1R; conditions: CHO-K1 cells; ref Kostenis et al., 2005; cited from earlier work
Description: The modulation of the activity of ERK1/2 by Ang-(1–7) has been analyzed previously. […] Participation of the M ...

[10] = tested on: renal AT1R; conditions: pM range; reference not clearly printed; cited from earlier work
Description: as §1

[11] = biological target: AT1R (Homo sapiens) (UniProt P30556); assay: competition binding with 3H-Ang II; conditions: cited from earlier work
AT1R (Homo sapiens), sequence (P30556 whole entry): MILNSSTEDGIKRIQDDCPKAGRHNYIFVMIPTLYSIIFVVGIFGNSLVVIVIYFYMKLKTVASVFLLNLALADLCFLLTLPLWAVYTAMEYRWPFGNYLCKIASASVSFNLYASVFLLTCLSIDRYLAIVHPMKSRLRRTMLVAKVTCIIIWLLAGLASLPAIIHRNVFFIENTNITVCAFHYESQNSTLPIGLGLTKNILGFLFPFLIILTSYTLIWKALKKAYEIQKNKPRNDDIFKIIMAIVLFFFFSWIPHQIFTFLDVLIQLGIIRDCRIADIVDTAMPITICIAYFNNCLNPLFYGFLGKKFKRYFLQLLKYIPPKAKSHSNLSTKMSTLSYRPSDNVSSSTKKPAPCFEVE

[12] = biological target: AT1R (Homo sapiens) (UniProt P30556); assay: competition binding; conditions: cited from earlier work
[13] = tested on: MrgD receptor; conditions: ref Tetzner et al., 2016; cited from earlier work
Description: (§2) The reasons for this discrepancy could rely on the different approaches used to detect the cAMP levels. We desig ...

[14] = tested on: Mas receptor; conditions: ref Tetzner et al., 2016; cited from earlier work
Description: as §2

[15] = tested on: MasR; parameters: method as in 2 sources, one per row (each row's own in cited_ref): ref Bikkavilli et al., 2006; Shemesh et al., 2008; Zhang et al., 2012; Tirupula et al., 2014 ||| ref Dong et al., 2001; conditions: ref Dong et al., 2001; cited from earlier work

CCNC(=O)NS(=O)(=O)c1sc(CC(C)C)cc1-c1ccc(Cn2c(-c3ccccc3)nc(OC)c2C=O)cc1 [AVE 0991, 5-formyl-4-methoxy-2-phenyl-1-[[4-[2-ethylaminocarbonylsulfonamido-5-isobutil-3-thienyl]phenyl]-methyl]imidazole]
modulation of cAMP levels, empty vector [1]: did not alter cAMP levels
modulation of cAMP levels ([2]; HEK293T overexpressing MasR, 1 μM forskolin, ligand 5 min): concentration-dependent decrease in the production of cAMP
pEC50, concentration-dependent decrease in the production of cAMP ([2]; HEK293T transfected with pcDNA3.1/c-myc-MasR, 10 min 1 μM forskolin, then 5 min ligand, 37°C, mean ± SEM of three independent experiments): 7.75 ± 0.40
heart dysfunction, AVE 0991 [3]: beneficial effects obtained in heart dysfunction
forskolin-stimulated cAMP levels in MasR-transfected HEK293 cells [4]: no change in forskolin-stimulated cAMP levels

NCCc1c[nH]cn1 [histamine, histamine dihydrochloride]
intracellular Ca^2+ levels, A549 cells (endogenous MasR), positive control [5]: significant increase in cytosolic Ca^2+ levels
intracellular Ca^2+ levels, transfected A549 cells, positive control [6]: important increase in Ca^2+ levels

CCCCc1nc(Cl)c(CO)n1Cc1ccc(-c2ccccc2-c2nn[nH]n2)cc1 [losartan]
block of Ang-(1–7) effects on absorption [7]: both effects were blocked by losartan

AT1R siRNA: human AT1R siRNA (AUACGUGACUGUAGAAUUG) (chemistry not given here)
reduction of AT1R mRNA levels versus scrambled siRNA [8]: ~50%

Ang II: angiotensin II, of the classical RAS axis (DRVYIHPF; Angiotensin-2; UniProt P01019 25-32, looked up)
Ang II-induced IP1 production and Ca^2+ increase on MasR/AT1R coexpression [9]: significantly decreased both the Ang II-induced production of IP1 and the increase of intracellular Ca^2+ levels mediated by the AT1R
affinity of renal AT1R on proximal tubules [10]: very high affinity for Ang II (in the pM range)

Angiotensin-(1-7) (from UniProt P01019)
Ki [11]: 200 nM
Ki [12]: 360 nM

D-Ala7-Ang-(1–7)
antagonism of Ang-(1–7)-induced cAMP increase, HEK293 overexpressing MrgD [13]: blocked
antagonism of Ang-(1–7)-induced cAMP increase, HEK293 overexpressing Mas [14]: blocked

D-Pro7-Ang-(1–7)
antagonism of Ang-(1–7)-induced cAMP increase, HEK293 overexpressing MrgD [13]: blocked
antagonism of Ang-(1–7)-induced cAMP increase, HEK293 overexpressing Mas [14]: blocked

NPFF: neuropeptide FF (FLFQPQRF; ends and bridges not checked; UniProt O15130 69-76, looked up)
conventional G protein signaling, NPFF [15]: conventional G protein signaling has been reported

Reference: PMC6395383, “Participation of Gαi-Adenylate Cyclase and ERK1/2 in Mas Receptor Signaling Pathways” (Frontiers in Pharmacology, 2019)
